From patent US12391706B2, “Multi-target tyrosine kinase inhibitor” (SHENZHEN NEPTUNUS PHARMACEUTICAL RESEARCH INSTITUTE CO., …, priority 2020, dated 2025)

test system: MKN-45 gastric cancer cells; assay: Gastric cancer cell MKN45 xenograft model; type: in vivo, nude mice; conditions: oral 100 mg·kg^−1 once a day for 14 days
From the text: • 1. Compounds (td32-4, td32-4P3, td32-4P6, td32-4P9, td32-4P10) were selected for in vivo activity evaluation at a single concentration. The animal model was gastric cancer cell MKN45 xenograft model.
Test method: 5×10^6 MKN-45 gastric cancer cells were inoculated under the fat pad of the right rib of nude mice, and the tumor formation was observed. Two weeks after the inoculation, the tumor-bearing mice were divided into groups and orally administered with td32-4, td32-4P3, td32-4P6, td32-4P9, and td32-4P10 at a dose of 100 mg·kg^−1, once a day for 14 days, respectively. Tumor volumes were measured with a caliper and recorded.

SMILES	tumor inhibitory effect (tumor volume)
NCC(=O)OCCn1cc(-c2cc3nccc(Oc4ccc(NC(=O)C5(C(=O)Nc6ccc(F)cc6)CC5)cc4F)c3s2)cn1 [td32-4P6, 2-(4-(7-(2-fluoro-4-(1-((4-fluorophenyl)carbamoyl)cyclopropane-1-carboxamide)phenoxy)thieno[3,2-b]pyridin-2-yl)-1H-pyrazolyl-1-yl)ethyl glycinate]	moderate inhibitory activity
CCC(C)C(N)C(=O)OCCn1cc(-c2cc3nccc(Oc4ccc(NC(=O)C5(C(=O)Nc6ccc(F)cc6)CC5)cc4F)c3s2)cn1 (centres unmarked) [td32-4P9, 2-(4-(7-(2-fluoro-4-(1-(4-fluorophenyl)carbamoyl)cyclopropane-1-carboxamide)phenoxy)thieno[3,2-b]pyridin-2-yl)-1H-pyrazolyl-1-yl)ethyl isoleucinate]	potent tumor inhibitory effect

test system: not listed separately; assay: Solubility test (water), Chinese Pharmacopoeia 2015; type: physicochemical; conditions: 25° C.±2° C., dissolution within 30 minutes
Protocol: The series of compounds synthesized in Examples 1-24 were subjected to solubility test (water), according to the solubility test methods in Chinese Pharmacopoeia, 2015 Edition. The specific test operations and evaluation criteria are as follows: An appropriate amount (1 mg-10 mg) of finely powdered compound was weighed, placed in a certain volume of solvent at 25° C.±2° C., and shaken vigorously for 30 seconds every 5 minutes; the dissolution within 30 minutes was observed. It was considered completely dissolved if there were no visible particles or droplets of the solute. [table]

SMILES	Water solubility test Result
NC(Cc1ccccc1)C(=O)OCCn1cc(-c2cc3nccc(Oc4ccc(NC(=O)C5(C(=O)Nc6ccc(F)cc6)CC5)cc4F)c3s2)cn1 [td32-4P12, 2-(4-(7-(2-fluoro-4-(1-((4-fluorophenyl)carbamoyl)cyclopropane-1-carboxamide)phenoxy)thieno[3,2-b]pyridin-2-yl)-1H-pyrazolyl-1-yl)ethyl L-phenylalaninate]	F (1 g of solute is soluble in 1000~10000 mL of sovent)
CN1CCN(Cc2ccc(C(=O)OCCn3cc(-c4cc5nccc(Oc6ccc(NC(=O)C7(C(=O)Nc8ccc(F)cc8)CC7)cc6F)c5s4)cn3)cc2)CC1 [td32-4P21, 2-(4-(7-(2-fluoro-4-(1-((4-fluorophenyl)carbamoyl)cyclopropane-1-carboxamide)phenoxy)thieno[3,2-b]pyridin-2-yl)-1H-pyrazol-1-yl)ethyl 4-((methylpiperazin-1-yl)methyl) benzoate]	D (1 g of solute is soluble in 30~100 mL of sovent)
O=C(OCCn1cc(-c2cc3nccc(Oc4ccc(NC(=O)C5(C(=O)Nc6ccc(F)cc6)CC5)cc4F)c3s2)cn1)c1ccc(CN2CCCC2)cc1 [td32-4P23]	D (1 g of solute is soluble in 30~100 mL of sovent)
O=C(OCCn1cc(-c2cc3nccc(Oc4ccc(NC(=O)C5(C(=O)Nc6ccc(F)cc6)CC5)cc4F)c3s2)cn1)C1CCCN1 (centres unmarked) [td32-4P13, 2-(4-(7-(2-fluoro-4-(1-((4-fluorophenyl)carbamoyl)cyclopropane-1-carboxamide)phenoxy)thieno[3,2-b]pyridin-2-yl)-1H-pyrazolyl-1-yl)ethyl prolinate]	E (1 g of solute is soluble in 100~1000 mL of sovent)
NCC(=O)OCCn1cc(-c2cc3nccc(Oc4ccc(NC(=O)C5(C(=O)Nc6ccc(F)cc6)CC5)cc4F)c3s2)cn1 [td32-4P6, 2-(4-(7-(2-fluoro-4-(1-((4-fluorophenyl)carbamoyl)cyclopropane-1-carboxamide)phenoxy)thieno[3,2-b]pyridin-2-yl)-1H-pyrazolyl-1-yl)ethyl glycinate]	C (1 g of solute is soluble in 10~30 mL of sovent)
O=C(OCCn1cc(-c2cc3nccc(Oc4ccc(NC(=O)C5(C(=O)Nc6ccc(F)cc6)CC5)cc4F)c3s2)cn1)c1cccc(CN2CCCC2)c1 [td32-4P24]	D (1 g of solute is soluble in 30~100 mL of sovent)
NC(=O)CC(N)C(=O)OCCn1cc(-c2cc3nccc(Oc4ccc(NC(=O)C5(C(=O)Nc6ccc(F)cc6)CC5)cc4F)c3s2)cn1 (centres unmarked) [td32-4P14, 2-(4-(7-(2-fluoro-4-(1-((4-fluorophenyl)carbamoyl)cyclopropane-1-carboxamide)phenoxy)thieno[3,2-b]pyridin-2-yl)-1H-pyrazolyl-1-yl)ethyl asparaginate]	D (1 g of solute is soluble in 30~100 mL of sovent)
CC(C)CC(N)C(=O)OCCn1cc(-c2cc3nccc(Oc4ccc(NC(=O)C5(C(=O)Nc6ccc(F)cc6)CC5)cc4F)c3s2)cn1 (centres unmarked) [td32-4P8, 2-(4-(7-(2-fluoro-4-(1-((4-fluorophenyl)carbamoyl)cyclopropane-1-carboxamide)phenoxy)thieno[3,2-b]pyridin-2-yl)-1H-pyrazolyl-1-yl)ethyl leucinate]	E (1 g of solute is soluble in 100~1000 mL of sovent)
CCC(C)C(N)C(=O)OCCn1cc(-c2cc3nccc(Oc4ccc(NC(=O)C5(C(=O)Nc6ccc(F)cc6)CC5)cc4F)c3s2)cn1 (centres unmarked) [td32-4P9, 2-(4-(7-(2-fluoro-4-(1-(4-fluorophenyl)carbamoyl)cyclopropane-1-carboxamide)phenoxy)thieno[3,2-b]pyridin-2-yl)-1H-pyrazolyl-1-yl)ethyl isoleucinate]	D (1 g of solute is soluble in 30~100 mL of sovent)
O=C(OCCn1cc(-c2cc3nccc(Oc4ccc(NC(=O)C5(C(=O)Nc6ccc(F)cc6)CC5)cc4F)c3s2)cn1)c1ccc(CN2CCOCC2)cc1 [td32-4P19, 2-(4-(7-(2-fluoro-4-(1-((4-fluorophenyl)carbamoyl)cyclopropane-1-carboxamide)phenoxy)thieno[3,2-b]pyridin-2-yl)-1H-pyrazolyl-1-yl)ethyl 4-(morpholinylmethyl) benzoate]	F (1 g of solute is soluble in 1000~10000 mL of sovent)
CN1CCN(Cc2cccc(C(=O)OCCn3cc(-c4cc5nccc(Oc6ccc(NC(=O)C7(C(=O)Nc8ccc(F)cc8)CC7)cc6F)c5s4)cn3)c2)CC1 [td32-4P22, 2-(4-(7-(2-fluoro-4-(1-((4-fluorophenyl)carbamoyl)cyclopropane-1-carboxamide)phenoxy)thieno[3,2-b]pyridin-2-yl)-1H-pyrazolyl-1-yl)ethyl 3-((methylpiperazin-1-yl)methyl) benzoate]	D (1 g of solute is soluble in 30~100 mL of sovent)
O=C(OCCn1cc(-c2cc3nccc(Oc4ccc(NC(=O)C5(C(=O)Nc6ccc(F)cc6)CC5)cc4F)c3s2)cn1)c1cccc(CN2CCOCC2)c1 [td32-4P20, 2-(4-(7-(2-fluoro-4-(1-((4-fluorophenyl)carbamoyl)cyclopropane-1-carboxamide)phenoxy)thieno[3,2-b]pyridin-2-yl)-1H-pyrazolyl-1-yl)ethyl 3-(morpholinylmethyl) benzoate]	F (1 g of solute is soluble in 1000~10000 mL of sovent)
CCN(CC)CC(=O)OCCn1cc(-c2cc3nccc(Oc4ccc(NC(=O)C5(C(=O)Nc6ccc(F)cc6)CC5)cc4F)c3s2)cn1 [td32-4P4, 2-(4-(7-(2-fluoro-4-(1-((4-fluorophenyl)carbamoyl)cyclopropane-1-carboxamide)phenoxy)thieno[3,2-b]pyridin-2-yl)-1H-pyrazolyl-1-yl)ethyldiethyl glycinate]	C (1 g of solute is soluble in 10~30 mL of sovent)
NC(=O)CCC(N)C(=O)OCCn1cc(-c2cc3nccc(Oc4ccc(NC(=O)C5(C(=O)Nc6ccc(F)cc6)CC5)cc4F)c3s2)cn1 (centres unmarked) [td32-4P15, 2-(4-(7-(2-fluoro-4-(1-((4-fluorophenyl)carbamoyl)cyclopropane-1-carboxamide)phenoxy)thieno[3,2-b]pyridin-2-yl)-1H-pyrazolyl-1-yl)ethyl glutaminate]	D (1 g of solute is soluble in 30~100 mL of sovent)
CC(C(=O)OCCn1cc(-c2cc3nccc(Oc4ccc(NC(=O)C5(C(=O)Nc6ccc(F)cc6)CC5)cc4F)c3s2)cn1)N(C)C (centres unmarked) [td32-4P18, 2-(4-(7-(2-fluoro-4-(1-((4-fluorophenyl)carbamoyl)cyclopropane-1-carboxamide)phenoxy)thieno[3,2-b]pyridin-2-yl)-1H-pyrazolyl-1-yl)ethyl N,N-dimethyl alaninate]	D (1 g of solute is soluble in 30~100 mL of sovent)
CSCCC(N)C(=O)OCCn1cc(-c2cc3nccc(Oc4ccc(NC(=O)C5(C(=O)Nc6ccc(F)cc6)CC5)cc4F)c3s2)cn1 (centres unmarked) [td32-4P11, 2-(4-(7-(2-fluoro-4-(1-((4-fluorophenyl)carbamoyl)cyclopropane-1-carboxamide)phenoxy)thieno[3,2-b]pyridin-2-yl)-1H-pyrazolyl-1-yl)ethyl methioninate]	E (1 g of solute is soluble in 100~1000 mL of sovent)
O=C(O)CCC(=O)OCCn1cc(-c2cc3nccc(Oc4ccc(NC(=O)C5(C(=O)Nc6ccc(F)cc6)CC5)cc4F)c3s2)cn1 [td32-4P1, 4-(2-(4-(7-(2-fluoro-4-(1-((4-fluorophenyl)carbamoyl)cyclopropane-1-carboxamide)phenoxy)thieno[3,2-b]pyridin-2-yl)-1H-pyrazolyl-1-yl)ethoxy)-4-oxobutyric acid]	F (1 g of solute is soluble in 1000~10000 mL of sovent)
COC(CNCC(=O)OCCn1cc(-c2cc3nccc(Oc4ccc(NC(=O)C5(C(=O)Nc6ccc(F)cc6)CC5)cc4F)c3s2)cn1)OC [td32-4P17, 2-(4-(7-(2-fluoro-4-(1-((4-fluorophenyl)carbamoyl)cyclopropane-1-carboxamide)phenoxy)thieno[3,2-b]pyridin-2-yl)-1H-pyrazolyl-1-yl)ethyl(2,2-dimethoxyethyl) glycinate]	E (1 g of solute is soluble in 100~1000 mL of sovent)
O=C(Nc1ccc(F)cc1)C1(C(=O)Nc2ccc(Oc3ccnc4cc(-c5cnn(CCOP(=O)(O)O)c5)sc34)c(F)c2)CC1 [td32-4P2, 2-(4-(7-(2-fluoro-4-(1-((4-fluorophenyl)carbamoyl)cyclopropane-1-carboxamide)phenoxy)thieno[3,2-b]pyridin-2-yl)-1H-pyrazolyl-1-yl)ethyl phosphate]	F (1 g of solute is soluble in 1000~10000 mL of sovent)
CC(N)C(=O)OCCn1cc(-c2cc3nccc(Oc4ccc(NC(=O)C5(C(=O)Nc6ccc(F)cc6)CC5)cc4F)c3s2)cn1 (centres unmarked) [td32-4P7, 2-(4-(7-(2-fluoro-4-(1-((4-fluorophenyl)carbamoyl)cyclopropane-1-carboxamide)phenoxy)thieno[3,2-b]pyridin-2-yl)-1H-pyrazolyl-1-yl)ethyl alaninate]	D (1 g of solute is soluble in 30~100 mL of sovent)
O=C(CN1CCOCC1)OCCn1cc(-c2cc3nccc(Oc4ccc(NC(=O)C5(C(=O)Nc6ccc(F)cc6)CC5)cc4F)c3s2)cn1 [td32-4P5, 2-(4-(7-(2-fluoro-4-(1-((4-fluorophenyl)carbamoyl)cyclopropane-1-carboxamide)phenoxy)thieno[3,2-b]pyridin-2-yl)-1H-pyrazolyl-1-yl)ethyl 2-morpholine acetate]	C (1 g of solute is soluble in 10~30 mL of sovent)
